Measured values as given in patent US20020173491A1, “DAPD combination therapy with inosine monophosphate dehydrogenase inhibitor” (priority 2000, published 2002).
pEC50: −log10 of the molar value. Like-named read-outs stand apart in the source and are kept apart here.

What was measured:
xxLAI strain of HIV-1 [1] = experiment: microbe, parasite or virus in culture; assay type: cell-based
Experimental: In this assay, cell supernatants were incubated on microelisa wells coated with antibodies to HIV-1 p24 core antigen. Subsequently, anti-HIV-1 conjugate labeled with horseradish peroxidase was added. The labeled antibody bound to the solid phase antibody/antigen complexes previously formed. Addition of the tetramethylbenzidine substrate results in blue color formation. The color turned yellow when the reaction is stopped. The plates were then analyzed on a plate reader set at 490 nm. The absorbance is a direct measurement of the amount of HIV-1 produced in each well and a decrease in color indicates decreased viral production. […] PBMC were obtained from HIV-1 negative donors by banding on Ficoll gradients, stimulated with phytohemaglutinin (PHAP) for 48 hours prior to infection with HIV-1, and infected with virus for 4 hours at 37° C. at a MOI of 0.001. […] Plates were incubated for 3 days at 37° C. The concentration of virus in each well was determined using the NEN p24 assay. Using the absorption values of the cell controls as 100% protection and drug free, virus infected cells as 0% protection, a dose response curve is generated by plotting percent protection on the Y axis and drug concentration on the X axis. From this curve, EC50 values were determined.
Compound dilutions and assay conditions were as described above.
MPA was also tested for activity against the xxLAI strain of HIV-1 in PBMCs using a p24 based Elisa assay. In this assay, cell supernatants are incubated on microelisa wells coated with antibodies to HIV-1 p24 core antigen. Subsequently, anti-HIV-1 conjugate labeled with horse radish peroxidase is added. The labeled antibody binds to the solid phase antibody/antigen complexes previously formed. Addition of the tetramethylbenzidine substrate results in blue color formation. The color turns yellow when the reaction is stopped. The plates are then analyzed on a plate reader set at 490 nm. The absorbance is a direct measurement of the amount of HIV-1 produced in each well and a decrease in color indicates decreased viral production. Dilutions of MPA were made in cell culture media in a 96 well plate, the highest concentration of MPA tested was 1 μM. PBMC were obtained from HIV-1 negative donors by banding on Ficoll gradients, stimulated with phytohemaglutinin (PHAP) for 48 hours prior to infection with HIV-1, and infected with virus for 4 hours at 37° C. at a MOI of 0.001. Infected cells were seeded into 96 well plates containing 4-fold serial dilutions of MPA. Plates were incubated for 3 days at 37° C. The concentration of virus in each well was determined using the NEN p24 assay. Using the absorption values of the cell controls as 100% protection and drug free, virus infected cells as 0% protection, a dose response curve is generated by plotting % protection on the Y axis and drug concentration on the X axis. From this curve EC50 values were determined.
Compound dilutions and assay conditions were as described above. The concentrations of MPA used were 1, 0.5, 0.25, 0.1, and 0.01 μM.

xxLAI strain of HIV-1 [2] = experiment: microbe, parasite or virus in culture; assay type: cell-based; remark: listed apart in the source
Experimental: Triplicate samples of compound were tested. MT2 cells were infected with xxLAI at a multiplicity of infection (MOI) of 0.03 for 3 hours at 37° C. in 5% CO2. The infected cells were plated at 3.0×10^4/well into a 96 well plated containing drug dilutions and incubated for 5 days at 37° C. in CO2. […] This method has been modified into a susceptibility assay and has been used in a variety of in vitro antiviral tests and is readily adaptable to any system with a lytic virus (Weislow, O. S., et. al. 1989). Using the absorption values of the cell controls as 100% protection and no drug, virus infected cells as 0% protection, a dose response curve is generated by plotting % protection on the Y axis and drug concentration on the X axis. From this curve EC50 values were determined.
Assays were performed in the MT2 cell line as described above in the XXT sensitivity assay section.
MPA was tested for activity against the xxLAI strain of HIV-1 in the laboratory adapted cell line MT2. Dilutions of MPA were made in cell culture media in a 96 well plate; the highest concentration tested was 1 μM. Triplicate samples of compound were tested. MT2 cells were infected with xxLAI at a multiplicity of infection (MOI) of 0.03 for 3 hours at 37° C. in 5% CO2. The infected cells were plated at 3.0×10^4/well into a 96 well plated containing drug dilutions and incubated for 5 days at 37° C. in CO2. The antiviral activity of MPA was determined using the XTT assay described above. This method has been modified into a susceptibility assay and has been used in a variety of in vitro antiviral tests and is readily adaptable to any system with a lytic virus (Weislow, O. S., et. al. 1989). Using the absorption values of the cell controls as 100% protection and no drug, virus infected cells as 0% protection, a dose response curve is generated by plotting % protection on the Y axis and drug concentration on the X axis. From this curve EC50 values were determined.
The concentrations of MPA used were 1, 0.5, 0.25, 0.1, and 0.01 μM. Assays were performed in the MT2 cell line as described in section 3.1.

**Q.** How did the pEC50 (xxLAI strain of HIV-1 [1]; Human immunodeficiency virus 1, PBMC, read-out: Mean EC50, Control, PMBCs, no MPA) turn out when `Cc1cn([C@H]2C[C@H](N=[N+]=[N-])[C@@H](CO)O2)c(=O)[nH]c1=O` [AZT, 3′-azido-3′-deoxy-thymidine] was run?
**A.** 8.51

**Q.** And the pEC50 (xxLAI strain of HIV-1 [1]; Human immunodeficiency virus 1, PBMC, read-out: Mean EC50, Control, PMBCs, no RBV)?
**A.** 8.52

**Q.** And the “effect of addition of 0.25 μM MPA on anti-HIV activity in PBMCs” value (xxLAI strain of HIV-1 [1]; PBMC, all the concentrations tested, with 0.25 μM MPA)?
**A.** little effect

**Q.** And the “effect of addition of 20 μM RBV on anti-HIV activity in PBMCs” value (xxLAI strain of HIV-1 [1]; PBMC, all the concentrations tested, with 20 μM RBV)?
**A.** little effect

**Q.** What about the “Fold difference in EC50, 0.1 μM MPA” value (xxLAI strain of HIV-1 [1]; PBMC, control vs with 0.1 μM MPA) of the same compound?
**A.** 1.5 fold

**Q.** What about the “Fold difference in EC50, 0.25 μM MPA” value (xxLAI strain of HIV-1 [1]; PBMC, control vs with 0.25 μM MPA) of the same compound?
**A.** 1.8 fold

**Q.** What about the “Fold difference in EC50, 5 μM RBV” value (xxLAI strain of HIV-1 [1]; PBMC, control vs with 5 μM RBV) of the same compound?
**A.** 1.2 fold

**Q.** What about the “Fold difference in EC50, 10 μM RBV” value (xxLAI strain of HIV-1 [1]; PBMC, control vs with 10 μM RBV) of the same compound?
**A.** 1.4 fold

**Q.** What about the “Fold difference in EC50, 20 μM RBV” value (xxLAI strain of HIV-1 [1]; PBMC, control vs with 20 μM RBV) of the same compound?
**A.** 1.4 fold

**Q.** What about the pEC50 (xxLAI strain of HIV-1 [1]; read-out: Mean EC50, 0.01 μM MPA, PMBCs, with 0.01 μM MPA) of the same compound?
**A.** 8.59

**Q.** And the pEC50 (xxLAI strain of HIV-1 [1]; read-out: Mean EC50, 0.1 μM MPA, PMBCs, with 0.1 μM MPA)?
**A.** 8.68

**Q.** What about the pEC50 (xxLAI strain of HIV-1 [1]; read-out: Mean EC50, 0.25 μM MPA, PMBCs, with 0.25 μM MPA) of the same compound?
**A.** 8.77

**Q.** And the pEC50 (xxLAI strain of HIV-1 [1]; read-out: Mean EC50, 1 μM RBV, PMBCs, with 1 μM RBV)?
**A.** 8.46

**Q.** What about the pEC50 (xxLAI strain of HIV-1 [1]; read-out: Mean EC50, 5 μM RBV, PMBCs, with 5 μM RBV) of the same compound?
**A.** 8.59

**Q.** And the pEC50 (xxLAI strain of HIV-1 [1]; read-out: Mean EC50, 10 μM RBV, PMBCs, with 10 μM RBV)?
**A.** 8.66

**Q.** What about the pEC50 (xxLAI strain of HIV-1 [1]; read-out: Mean EC50, 20 μM RBV, PMBCs, with 20 μM RBV) of the same compound?
**A.** 8.68

**Q.** And the pEC50 (xxLAI strain of HIV-1 [2]; Human immunodeficiency virus 1, MT2, read-out: Mean EC50, Control, MT2 cells, no MPA)?
**A.** 6.38

**Q.** And the pEC50 (xxLAI strain of HIV-1 [2]; Human immunodeficiency virus 1, MT2, read-out: Mean EC50, Control, MT2 cells, no RBV)?
**A.** 5.77

**Q.** And the “fold increase in the apparent EC50” value (xxLAI strain of HIV-1 [2]; MT2 cells, addition of 0.25 μM MPA)?
**A.** 2.3 fold

**Q.** What about the “Fold difference in EC50, 0.1 μM MPA” value (xxLAI strain of HIV-1 [2]; MT2 cells, control vs with 0.1 μM MPA) of the same compound?
**A.** 0.5 fold

**Q.** What about the “Fold difference in EC50, 0.25 μM MPA” value (xxLAI strain of HIV-1 [2]; MT2 cells, control vs with 0.25 μM MPA (fold decrease)) of the same compound?
**A.** 0.44 fold

**Q.** And the “Fold difference in EC50, 1 μM RBV” value (xxLAI strain of HIV-1 [2]; MT2 cells, control vs with 1 μM RBV)?
**A.** 0.59 fold

**Q.** And the “Fold difference in EC50, 5 μM RBV” value (xxLAI strain of HIV-1 [2]; MT2 cells, control vs with 5 μM RBV)?
**A.** 0.37 fold

**Q.** What about the “Fold difference in EC50, 10 μM RBV” value (xxLAI strain of HIV-1 [2]; MT2 cells, control vs with 10 μM RBV) of the same compound?
**A.** 0.29 fold

**Q.** What about the “Fold difference in EC50, 20 μM RBV” value (xxLAI strain of HIV-1 [2]; MT2 cells, control vs with 20 μM RBV (fold decrease)) of the same compound?
**A.** <0.17 fold

**Q.** And the pEC50 (xxLAI strain of HIV-1 [2]; read-out: Mean EC50, 0.01 μM MPA, MT2 cells, with 0.01 μM MPA)?
**A.** 6.52

**Q.** What about the pEC50 (xxLAI strain of HIV-1 [2]; read-out: Mean EC50, 0.1 μM MPA, MT2 cells, with 0.1 μM MPA) of the same compound?
**A.** 6.10

**Q.** And the pEC50 (xxLAI strain of HIV-1 [2]; read-out: Mean EC50, 0.25 μM MPA, MT2 cells, with 0.25 μM MPA)?
**A.** 6.02

**Q.** What about the pEC50 (xxLAI strain of HIV-1 [2]; read-out: Mean EC50, 1 μM RBV, MT2 cells, with 1 μM RBV) of the same compound?
**A.** 5.54

**Q.** What about the pEC50 (xxLAI strain of HIV-1 [2]; read-out: Mean EC50, 5 μM RBV, MT2 cells, with 5 μM RBV) of the same compound?
**A.** 5.34

**Q.** And the pEC50 (xxLAI strain of HIV-1 [2]; read-out: Mean EC50, 10 μM RBV, MT2 cells, with 10 μM RBV)?
**A.** 5.23

**Q.** And the pEC50 (xxLAI strain of HIV-1 [2]; read-out: Mean EC50, 20 μM RBV, MT2 cells, with 20 μM RBV)?
**A.** < 5.00
